Experimental data from PubChem BioAssay AID256 (DTP/NCI, 2004).
Inconclusive results and toxic doses are left out. Rule for the calls: active = survival T/C of 150% or more; inactive = T/C below 125% in these data.

System: CD2F1 mice, L1210 leukemia ip, survival T/C
Assay: NCI In Vivo Anticancer Drug Screen. Data for tumor model L1210 Leukemia (intraperitoneal) in CD2F1 (CDF1) mice
Conditions: higher = longer survival
Procedure, shortened: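 In this screen, transplantable tumors were grown in mice given either the compound or its vehicle. Results were expressed as the treated measurement relative to the control measurement.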

[1] = endpoint: mean survival time, dose: 100.0 mg/kg/injection, schedule: Q04DX003 (ip), vehicle: saline with Tween-80
[2] = endpoint: mean survival time, dose: 200.0 mg/kg/injection, schedule: Q04DX003 (ip), vehicle: saline with Tween-80

Measured: T/C

O=S(c1cc(Cl)ccc1O)c1cc(Cl)ccc1O
inactive: [1] 98 % of control | [2] 89 % of control

CN(C)N=C1CCCCC1
inactive: endpoint: mean survival time, dose: 75.0 mg/kg/injection, schedule: Q01DX001 (ip), vehicle: saline 96 % of control | endpoint: mean survival time, dose: 150.0 mg/kg/injection, schedule: Q01DX001 (ip), vehicle: saline 98 % of control

c1ccc(CNc2ccccn2)cc1
inactive: [1] 97 % of control | [2] 97 % of control | endpoint: mean survival time, dose: 400.0 mg/kg/injection, schedule: Q04DX003 (ip), vehicle: saline with Tween-80 95 % of control

CCCCN(CCCC)N=O
inactive: endpoint: mean survival time, dose: 25.0 mg/kg/injection, schedule: Q01DX009 (ip), vehicle: Klucel (hydroxypropylcellulose) (HPC) 96 % of control | endpoint: mean survival time, dose: 50.0 mg/kg/injection, schedule: Q01DX009 (ip), vehicle: Klucel (hydroxypropylcellulose) (HPC) 90 % of control | endpoint: mean survival time, dose: 100.0 mg/kg/injection, schedule: Q01DX009 (ip), vehicle: Klucel (hydroxypropylcellulose) (HPC) 98 % of control

[CH3][Tl]([CH3])[Br]
inactive: endpoint: mean survival time, dose: 100.0 mg/kg/injection, schedule: Q04DX002 (ip), vehicle: saline with Tween-80 100 % of control | endpoint: mean survival time, dose: 200.0 mg/kg/injection, schedule: Q04DX002 (ip), vehicle: saline with Tween-80 96 % of control | endpoint: mean survival time, dose: 400.0 mg/kg/injection, schedule: Q04DX002 (ip), vehicle: saline with Tween-80 96 % of control

CCCCN(Cc1ccccc1)CC(O)C[NH-].CS(C)=O.[Cl-].[Cl-].[Pt+4] (stereo unspecified)
inactive: endpoint: median survival time, dose: 10.0 mg/kg/injection, schedule: Q04DX003 (ip), vehicle: saline 100 % of control | endpoint: median survival time, dose: 20.0 mg/kg/injection, schedule: Q04DX003 (ip), vehicle: saline 110 % of control | endpoint: median survival time, dose: 40.0 mg/kg/injection, schedule: Q04DX003 (ip), vehicle: saline 108 % of control | endpoint: median survival time, dose: 50.0 mg/kg/injection, schedule: Q04DX003 (ip), vehicle: saline 103 % of control | endpoint: median survival time, dose: 80.0 mg/kg/injection, schedule: Q04DX003 (ip), vehicle: saline 109 % of control

Cc1cc(O)c2c(c1)C(=O)C=CC2=O
inactive: endpoint: mean survival time, dose: 0.12 mg/kg/injection, schedule: Q01DX009 (ip), vehicle: other 102 % of control | endpoint: mean survival time, dose: 0.25 mg/kg/injection, schedule: Q01DX009 (ip), vehicle: other 108 % of control | endpoint: mean survival time, dose: 0.5 mg/kg/injection, schedule: Q01DX009 (ip), vehicle: other 97 % of control | endpoint: mean survival time, dose: 1.0 mg/kg/injection, schedule: Q01DX009 (ip), vehicle: other 93 % of control | endpoint: mean survival time, dose: 2.0 mg/kg/injection, schedule: Q01DX009 (ip), vehicle: other 97 % of control

CC(=O)N1CCCC2=C1CCCCCC2
inactive: endpoint: mean survival time, dose: 12.5 mg/kg/injection, schedule: Q04DX003 (ip), vehicle: saline 101 % of control | endpoint: mean survival time, dose: 25.0 mg/kg/injection, schedule: Q01DX009 (ip), vehicle: saline 110 % of control | endpoint: mean survival time, dose: 25.0 mg/kg/injection, schedule: Q04DX003 (ip), vehicle: saline 88 % of control | endpoint: mean survival time, dose: 50.0 mg/kg/injection, schedule: Q01DX009 (ip), vehicle: saline 115 % of control | endpoint: mean survival time, dose: 50.0 mg/kg/injection, schedule: Q04DX003 (ip), vehicle: saline 88 % of control | endpoint: mean survival time, dose: 100.0 mg/kg/injection, schedule: Q01DX001 (ip), vehicle: saline 96 % of control | endpoint: mean survival time, dose: 100.0 mg/kg/injection, schedule: Q01DX009 (ip), vehicle: saline 113 % of control | endpoint: mean survival time, dose: 100.0 mg/kg/injection, schedule: Q04DX002 (ip), vehicle: saline 102 % of control | endpoint: mean survival time, dose: 100.0 mg/kg/injection, schedule: Q04DX003 (ip), vehicle: saline 90 % of control | endpoint: mean survival time, dose: 200.0 mg/kg/injection, schedule: Q01DX001 (ip), vehicle: saline 102 % of control | endpoint: mean survival time, dose: 200.0 mg/kg/injection, schedule: Q01DX009 (ip), vehicle: saline 110 % of control | endpoint: mean survival time, dose: 200.0 mg/kg/injection, schedule: Q04DX002 (ip), vehicle: saline 98 % of control | endpoint: mean survival time, dose: 200.0 mg/kg/injection, schedule: Q04DX003 (ip), vehicle: saline 95 % of control | endpoint: mean survival time, dose: 400.0 mg/kg/injection, schedule: Q01DX001 (ip), vehicle: saline 93 % of control | endpoint: mean survival time, dose: 400.0 mg/kg/injection, schedule: Q04DX002 (ip), vehicle: saline 95 % of control | endpoint: mean survival time, dose: 400.0 mg/kg/injection, schedule: Q04DX003 (ip), vehicle: saline 91 % of control | endpoint: mean survival time, dose: 500.0 mg/kg/injection, schedule: Q04DX002 (ip), vehicle: saline 98 % of control | endpoint: mean survival time, dose: 600.0 mg/kg/injection, schedule: Q01DX001 (ip), vehicle: saline 93 % of control

O=[N+]([O-])c1ccc2nsnc2c1
inactive: endpoint: mean survival time, dose: 100.0 mg/kg/injection, schedule: Q01DX001 (ip), vehicle: saline with Tween-80 103 % of control | endpoint: mean survival time, dose: 100.0 mg/kg/injection, schedule: Q01DX009 (ip), vehicle: saline with Tween-80 103 % of control | endpoint: mean survival time, dose: 200.0 mg/kg/injection, schedule: Q01DX001 (ip), vehicle: saline with Tween-80 106 % of control | endpoint: mean survival time, dose: 200.0 mg/kg/injection, schedule: Q01DX009 (ip), vehicle: saline with Tween-80 114 % of control | endpoint: mean survival time, dose: 400.0 mg/kg/injection, schedule: Q01DX001 (ip), vehicle: saline with Tween-80 107 % of control
